According to PubChem BioAssay (NCI):
Values joined by “and” are separate entries in the source; they are usually repeats but may differ in a detail not shown here. Equal entries are not always repeated.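 Five concentrations, 48 hours, 96-well plates. At the GI50, growth is halved. The concentration for full growth arrest is given as TGI.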

Tests used:
Assay in all cases: NCI tumour cell line growth inhibition, 48 h
[1] = system: 786-0 renal
[2] = system: A498 renal
[3] = system: A549 NSCLC
[4] = system: ACHN renal
[5] = system: BT-549 breast
[6] = system: CAKI-1 renal
[7] = system: CCRF-CEM leukemia
[8] = system: COLO 205 colon
[9] = system: DU-145 prostate
[10] = system: EKVX NSCLC
[11] = system: HCC-2998 colon
[12] = system: HCT-116 colon
[13] = system: HCT-15 colon
[14] = system: HOP-62 NSCLC
[15] = system: HS 578T breast
[16] = system: HT29 colon
[17] = system: IGROV1 ovarian
[18] = system: K-562 leukemia
[19] = system: KM12 colon
[20] = system: LOX IMVI melanoma
[21] = system: M14 melanoma
[22] = system: MALME-3M melanoma
[23] = system: MCF7 breast
[24] = system: MDA-MB-435
[25] = system: MOLT-4 leukemia
[26] = system: NCI-H226 lung
[27] = system: NCI-H23 lung
[28] = system: NCI-H460 lung
[29] = system: NCI-H522 lung
[30] = system: NCI/ADR-RES ovarian
[31] = system: OVCAR-4 ovarian
[32] = system: OVCAR-5 ovarian
[33] = system: OVCAR-8 ovarian
[34] = system: PC-3 prostate
[35] = system: RPMI-8226 leukemia
[36] = system: RXF 393 renal
[37] = system: SF-268 CNS
[38] = system: SF-295 CNS
[39] = system: SF-539 CNS
[40] = system: SK-MEL-2 melanoma
[41] = system: SK-MEL-28 melanoma
[42] = system: SK-MEL-5 melanoma
[43] = system: SK-OV-3 ovarian
[44] = system: SN12C renal
[45] = system: SNB-19 CNS
[46] = system: SNB-75 CNS
[47] = system: SW-620 colon
[48] = system: T-47D breast
[49] = system: TK-10 renal
[50] = system: U251 CNS
[51] = system: UACC-257 melanoma
[52] = system: UACC-62 melanoma
[53] = system: UO-31 renal
[54] = system: HL-60(TB) leukemia
[55] = system: OVCAR-3 ovarian
[56] = system: SR leukemia

CCC1OC(/C(C)=C/C(C)/C=C/C2C(C)C2/C=C/C2OC(CC(=O)O)CC(O)C2O)CC=C1C (stereo unspecified)
GI50 [1]: > 50 µM | TGI [1]: > 50 µM | GI50 [2]: > 50 µM | TGI [2]: > 50 µM | GI50 [3]: > 50 µM | TGI [3]: > 50 µM | GI50 [4]: > 50 µM | TGI [4]: > 50 µM | GI50 [5]: > 50 µM | TGI [5]: > 50 µM | GI50 [6]: > 50 µM | TGI [6]: > 50 µM | GI50 [7]: > 50 µM | TGI [7]: > 50 µM | GI50 [8]: > 50 µM | TGI [8]: > 50 µM | GI50 [9]: > 50 µM | TGI [9]: > 50 µM | GI50 [10]: > 50 µM | TGI [10]: > 50 µM | GI50 [11]: > 50 µM | TGI [11]: > 50 µM | GI50 [12]: > 50 µM | TGI [12]: > 50 µM | GI50 [13]: > 50 µM | TGI [13]: > 50 µM | GI50 [14]: > 50 µM | TGI [14]: > 50 µM | GI50 [15]: > 50 µM | TGI [15]: > 50 µM | GI50 [16]: > 50 µM | TGI [16]: > 50 µM | GI50 [17]: > 50 µM | TGI [17]: > 50 µM | GI50 [18]: > 50 µM | TGI [18]: > 50 µM | GI50 [19]: > 50 µM | TGI [19]: > 50 µM | GI50 [20]: > 50 µM | TGI [20]: > 50 µM | GI50 [21]: > 50 µM | TGI [21]: > 50 µM | GI50 [22]: 1.99 µM | TGI [22]: > 50 µM | GI50 [23]: > 50 µM | TGI [23]: > 50 µM | GI50 [24]: > 50 µM | TGI [24]: > 50 µM | GI50 [25]: > 50 µM | TGI [25]: > 50 µM | GI50 [26]: > 50 µM | TGI [26]: > 50 µM | GI50 [27]: > 50 µM | TGI [27]: > 50 µM | GI50 [28]: > 50 µM | TGI [28]: > 50 µM | GI50 [29]: > 50 µM | TGI [29]: > 50 µM | GI50 [30]: 14.4 µM | TGI [30]: > 50 µM | GI50 [31]: > 50 µM | TGI [31]: > 50 µM | GI50 [32]: > 50 µM | TGI [32]: > 50 µM | GI50 [33]: > 50 µM | TGI [33]: > 50 µM | GI50 [34]: > 50 µM | TGI [34]: > 50 µM | GI50 [35]: > 50 µM | TGI [35]: > 50 µM | GI50 [36]: > 50 µM | TGI [36]: > 50 µM | GI50 [37]: > 50 µM | TGI [37]: > 50 µM | GI50 [38]: > 50 µM | TGI [38]: > 50 µM | GI50 [39]: > 50 µM | TGI [39]: > 50 µM | GI50 [40]: > 50 µM | TGI [40]: > 50 µM | GI50 [41]: > 50 µM | TGI [41]: > 50 µM | GI50 [42]: > 50 µM | TGI [42]: > 50 µM | GI50 [43]: > 50 µM | TGI [43]: > 50 µM | GI50 [44]: > 50 µM | TGI [44]: > 50 µM | GI50 [45]: > 50 µM | TGI [45]: > 50 µM | GI50 [46]: > 50 µM | TGI [46]: > 50 µM | GI50 [47]: > 50 µM | TGI [47]: > 50 µM | GI50 [48]: > 50 µM | TGI [48]: > 50 µM | GI50 [49]: 9.6 µM | TGI [49]: > 50 µM | GI50 [50]: > 50 µM | TGI [50]: > 50 µM | GI50 [51]: > 50 µM | TGI [51]: > 50 µM | GI50 [52]: > 50 µM | TGI [52]: > 50 µM | GI50 [53]: > 50 µM | TGI [53]: > 50 µM

CCCC(=O)Nc1cc(/C=C/C(=O)N2C[C@H]3C[C@@]34C2=CC(=O)c2[nH]cc(C)c24)n(C)c1
TGI [2]: < 0.0025 µM | TGI [3]: 25 µM | TGI [6]: < 0.0025 µM | TGI [7]: < 0.0025 µM | TGI [8]: 0.281 µM | TGI [10]: 1.15 µM | TGI [11]: < 0.0025 µM | TGI [12]: 11 µM | TGI [13]: 25 µM | TGI [54]: < 0.0025 µM | TGI [14]: 25 µM | TGI [16]: 15.4 µM | TGI [18]: 25 µM | TGI [19]: 0.267 µM and 1.12 µM | TGI [21]: 25 µM | TGI [23]: 25 µM | TGI [25]: < 0.0025 µM | TGI [26]: 0.25 µM | TGI [27]: 0.00558 µM | TGI [29]: < 0.0025 µM | TGI [30]: 0.11 µM and 0.0507 µM | TGI [55]: 0.00947 µM | TGI [31]: 0.0111 µM | TGI [32]: 25 µM | TGI [33]: < 0.0025 µM | TGI [34]: 25 µM | TGI [35]: 0.164 µM | TGI [37]: > 100 µM | TGI [38]: 0.388 µM | TGI [40]: 25 µM | TGI [41]: 0.00678 µM | TGI [42]: 1.04 µM | TGI [43]: 0.352 µM and 0.861 µM | TGI [44]: 0.257 µM | TGI [45]: 2.86 µM and 13.2 µM | TGI [46]: 0.00527 µM | TGI [56]: < 0.0025 µM | TGI [47]: 25 µM and 7.75 µM | TGI [50]: 1.11 µM | TGI [52]: < 0.0025 µM
